Source: patent US10154974B1, “Use of abscisic acid for the prevention and treatment of malaria” (The Regents of the University of California, priority 2015, dated 2018)
“And” between values parts separate entries of the source, which are not always exact repeats. Equal values may be shown once.

Key:
ILP3 and ILP4 = test: Insulin-like peptide mRNA levels in mosquito midgut; type: in vivo, Anopheles stephensi; settings: P. falciparum-fed mosquitoes
Procedure: FIG. 14A-B illustrate that ABA reduces insulin-like peptide expression in the midgut. Specifically, mRNA levels are shown of ILP3 (FIG. 14A) and ILP4 (FIG. 14B) in ABA-treated, P. falciparum-fed mosquito midguts. Data are shown as fold change compared to control-treated mosquitoes. Each dot represents one replicate of 10 pooled midguts. Data were analyzed by one sample t-test. * p<0.05.

IgG1 and IgG2a = test: IgM and IgG antibody isotype concentrations in mouse plasma; type: in vivo, mice; settings: days 9, 11 and 13 post-infection
Procedure: FIG. 24 illustrates that ABA supplementation increases levels of IgG1 and IgG2a in plasma. Concentrations are shown of IgM and IgG antibody isotypes in mouse plasma with and without ABA supplementation on days 9, 11 and 13 post-infection with P. yoelii 17XNL. Data were analyzed by unpaired t-test.

MAPK (erk, jnk, p38) = test: MAPK phosphorylation in mosquito midgut; type: in vivo, Anopheles stephensi; settings: 0 to 4 hours
AMPK = AMPK phosphorylation in mosquito midgut; type: in vivo, Anopheles stephensi; settings: midguts of ABA-treated, P. falciparum-fed mosquitoes
Procedure: Fold change is shown in levels of phosphorylated AMPK (FIG. 13A), and gsk3 (FIG. 13B) in the midguts of ABA-treated, P. falciparum-fed mosquitoes compared to controls. Each dot represents one replicate of 15 pooled midguts. Data were analyzed by one sample t-test. * p<0.05.

[1] = test system: parasite-specific IgG and IgG1; test: Western blot of infected RBC protein probed with mouse plasma; type: in vivo; settings: P. yoelii-infected mice
Description: FIG. 26A-C illustrate that ABA-supplementation increased levels of parasite-specific IgG and IgG1 in mouse plasma. Shown are western blots of protein from uninfected and P. yoelii-infected RBCs probed with plasma from uninfected, P. yoelii-infected, ABA-supplemented P. yoelii-infected mice followed by IgG1 (FIG. 26A) and total IgG (FIG. 26B) secondary antibodies. Also shown is a densitometry analysis (FIG. 26C) of IgG1- and total IgG-bound protein from infected RBCs. Data are shown as fold change between control P. yoelii and ABA-supplemented P. yoelii plasma.

Anopheles stephensi = test: Mosquito lifespan with weekly ABA-supplemented bloodmeals; type: in vivo
Procedure: Median survival of control and ABA-treated mosquitoes from five lifespans in which mosquitoes received a weekly control or ABA-supplemented uninfected bloodmeal. Each lifespan was conducted with 300 female mosquitoes per treatment. Data were analyzed by Wilcoxon matched-pairs signed rank test.
FIG. 17A is a survival curve of mosquitoes provided weekly control or ABA-supplemented uninfected bloodmeals and maintained on 3% sucrose solution. FIG. 17B is a survival curve of P. falciparum-infected mosquitoes provided control or ABA-supplemented weekly bloodmeals. Infection status was determined by detection of PfCOX in individual mosquitoes by qRT-PCR. Data were analyzed by log-rank test and Gehan-Breslow-Wilcoxon test.

P. yoelii 17XNL = P. yoelii 17XNL infection of CD1 mice given ABA in drinking water (parasitemia, gametocytemia); type: in vivo
Procedure: 6-8 week old female CD1 mice (Jackson) were housed four to a cage and provided with unsupplemented water or water supplemented with 2.56 mM (±)-abscisic acid (CAS Registry Number 14375-45-2) obtained from Sigma-Aldrich (Catalog No. A1049). Water and supplemented water were changed daily. […] Mouse weight, water consumption per cage, and parasitemia were monitored daily. Parasitemia was determined from thin blood films stained with Giemsa. Parasitemia was measured as the percentage of infected RBCs divided by total RBCs, while gametocytemia was measured as the proportion of gametocyte-containing RBCs of total infected RBCs. Four mice were used per group in replicated studies. Daily parasitemias and gametocytemias were analyzed by unpaired t-test.

[2] = test system: peroxisome proliferator activated receptor gamma (PPARγ); test: PPARγ transcript levels in mouse liver and spleen; type: in vivo, mice; settings: day 7 of infection
Procedure: (§1) For mosquito immune gene expression, 20 midguts were dissected from mosquitoes in each treatment group at 1, 2, 4, 6, 8 and 24 hours post-feeding. Midguts were sonicated and stored in Trizol at −20° C. for up to a week before RNA was extracted according to manufacturer's instructions. cDNA synthesis was carried out using QantiTect Reverse Transcription Kit (Qiagen) and 200 ng of cDNA used per reaction for qRT-PCR with Sybr Green (Applied Biosystems). Fold changes in expression levels were calculated using the comparative threshold cycle method. Data were normalized to the housekeeping gene ribosomal protein S7 and to the control treatment. Primers and cycling conditions for AsNOS, defensin, LRIM, TEP1, and APL1 were as previously described (Hauck E S, et al. Microbes Infect. 2013; 15:775-87). For gene expression analysis of mouse liver and spleen, organs were flash frozen after necropsy and stored at −80° C. before RNA was extracted in Trizol and cDNA synthesized. Real-time PCR was performed using TaqMan probe-based expression assays for mouse NOS2, PPARγ (Mm00440940), and β-actin (Applied Biosystems) with volumes and cycling conditions as previously described (Chau et al., Infect Immun, 2013, 81:3515-26). Samples were analyzed in triplicate with 250 ng of cDNA per reaction to confirm uniformity of amplification. […] All expression data were analyzed by one sample t-test.

AsNOS = AsNOS transcript levels in mosquito midgut; type: in vivo, Anopheles stephensi; settings: midguts, relative to controls, 4-6 hours post-feeding
Procedure: as §1, with “For gene expression analysis of mouse liver and spleen, organs were flash frozen after necropsy and stored at −80° C. before RNA was extracted in Trizol and cDNA synthesized. Real-time PCR was performed using TaqMan probe-based expression assays for mouse NOS2, PPARγ (Mm00440940), and β-actin (Applied Biosystems) with volumes and cycling conditions as previously described (Chau et al., Infect Immun, 2013, 81:3515-26).” left out
Transcript levels of a panel of immune genes previously described to play a role in the mosquito immune response to malaria parasites were examined. […] Mosquitoes were provided with a P. falciparum-infected bloodmeal supplemented with 100 nM ABA or with an equivalent volume of diluent as control, then analyzed at 1-24 hours post feeding.

human macrophages = settings: in vitro; cited from earlier work

Question: Which insulin-like peptide expression (ILP3 and ILP4) does the source give for CC1=CC(=O)CC(C)(C)[C@@]1(O)/C=C/C(C)=C\C(=O)O (racemic) [ABA, (2Z,4E)-5-[(1S)-1-hydroxy-2,6,6-trimethyl-4-oxocyclohex-2-en-1-yl]-3-methylpenta-2,4-dienoic acid] here?
Answer: reduces

Question: What about the “levels of IgG1 in plasma” value (IgG1 and IgG2a) of the same compound?
Answer: increases

Question: What about the “levels of IgG2a in plasma” value (IgG1 and IgG2a) of the same compound?
Answer: increases

Question: What about the MAPK phosphorylation (MAPK (erk, jnk, p38)) of the same compound?
Answer: does not alter

Question: What about the “phosphorylation of AMPK” value (AMPK) of the same compound?
Answer: alters phosphorylation

Question: What about the “levels of parasite-specific IgG and IgG1 in mouse plasma” value [1] of the same compound?
Answer: increased

Question: And the mosquito lifespan (Anopheles stephensi; P. falciparum-infected mosquitoes)?
Answer: does not alter

Question: And the mosquito median survival (Anopheles stephensi; five lifespans, weekly uninfected bloodmeal)?
Answer: does not alter

Question: And the “Median Survival” value (Anopheles stephensi; mosquitoes, weekly ABA-supplemented uninfected bloodmeal, replicates 1-5)?
Answer: 23 days and 16 days (2×) and 21 days and 18 days

Question: What about the mosquito lifespan (Anopheles stephensi; nutrient stress: maintained on 3% sucrose solution) of the same compound?
Answer: does not alter

Question: And the parasitemia (P. yoelii 17XNL; CD1 mice, day 4 to day 7 post-infection, relative to controls (Example 1))?
Answer: reduced

Question: And the gametocytemia (P. yoelii 17XNL; CD1 mice, day 6 of infection (Example 1))?
Answer: reduced

Question: And the gametocytemia (P. yoelii 17XNL; day 5 post-infection (Example 2))?
Answer: reduced

Question: And the parasitemia (P. yoelii 17XNL; starting on day 3 post-infection, compared to controls (Example 2))?
Answer: reduced

Question: And the “transcript levels of PPARγ” value [2]?
Answer: increased

Question: And the “AsNOS transcript levels induction” value (AsNOS)?
Answer: up to 13 fold

Question: What about the “activation of human macrophages” value (human macrophages) of the same compound?
Answer: activate
